Results on two compounds are retold here after paper PMC3573010, “Bacillus megaterium Has Both a Functional BluB Protein Required for DMB Synthesis and a Related Flavoprotein That Forms a Stable Radical Species” (PLoS ONE, 2013).

For one test, the target named is T1, BluB(Bm) (Priestia megaterium, UniProt D5DCL0).
T1 construct: native N-terminus MNSFTN by printed primer
T1 sequence (D5DCL0 1-217): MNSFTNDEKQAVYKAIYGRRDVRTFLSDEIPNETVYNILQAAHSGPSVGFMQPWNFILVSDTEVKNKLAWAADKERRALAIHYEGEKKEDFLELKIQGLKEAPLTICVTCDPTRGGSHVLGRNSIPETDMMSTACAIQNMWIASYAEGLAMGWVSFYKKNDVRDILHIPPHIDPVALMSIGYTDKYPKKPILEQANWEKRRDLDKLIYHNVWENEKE
Nature of the test: HPLC of DMB formed. The test is classed as biochemical. To be noted: O2 required; […] Tris-HCl pH […] NaCl, […] DTT; room temperature; FMN reduced in situ by NADH.

The next test has as its target T2, BluB(Rc) (Rhodobacter capsulatus, UniProt D5AV14).
T2 construct: N-terminal His6 tag with thrombin site (pET14b), expressed in E. coli BL21star(DE3)pLysS, 25 kDa on SDS-PAGE; native N-terminus MNFEQT by printed primer
The test is described as follows: HPLC of DMB formed; stopped-flow detection of 4a-peroxyflavin at […] nm. The test is classed as biochemical. Particulars: O2 required; 20 mM Tris-HCl pH 8.0, 100 mM NaCl; FMN reduced by NADH (HPLC) or dithionite (stopped-flow).

The target in another test is T3, CbiY(Bm) (Priestia megaterium, UniProt D5DG39).
T3 construct: native N-terminus MTIISQLK by primer
T3 sequence (D5DG39 1-189): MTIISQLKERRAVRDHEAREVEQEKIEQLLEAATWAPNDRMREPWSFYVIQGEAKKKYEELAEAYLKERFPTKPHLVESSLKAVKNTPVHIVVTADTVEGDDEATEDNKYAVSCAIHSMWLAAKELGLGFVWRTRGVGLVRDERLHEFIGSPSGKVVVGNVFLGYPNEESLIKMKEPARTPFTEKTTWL
The test is described as follows: UV-visible spectrum of purified holoprotein; heat release, HPLC and mass spectrometry. The test is classed as binding. Particulars: non-covalently bound, co-purified.

T2 sequence (D5AV14 whole entry): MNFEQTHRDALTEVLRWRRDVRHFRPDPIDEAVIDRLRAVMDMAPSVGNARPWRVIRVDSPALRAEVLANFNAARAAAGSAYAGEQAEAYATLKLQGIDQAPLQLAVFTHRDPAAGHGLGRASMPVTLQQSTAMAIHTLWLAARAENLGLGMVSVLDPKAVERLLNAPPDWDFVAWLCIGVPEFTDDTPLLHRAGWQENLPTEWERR

In the case of `Cc1cc2c(cc1C)N(C[C@H](O)[C@H](O)[C@H](O)COP(=O)(O)O)c1[nH]c(=O)[nH]c(=O)c1N2` [FMNH2], the “HPLC of DMB formed” value at BluB(Bm) was “DMB formation was observed in reaction mixtures containing either BluB(Rc) or BluB(Bm)”. Besides, the “HPLC of DMB formed; stopped-flow detection of 4a-peroxyflavin at 380 nm” value on BluB(Rc) is reported as “In the case of the BluB(Rc) enzyme, rapid formation of a peroxyflavin intermediate”.
For `Cc1cc2nc3c(=O)[nH]c(=O)nc-3n(C[C@H](O)[C@H](O)[C@H](O)COP(=O)(O)O)c2cc1C` [FMN], the “UV-visible spectrum of purified holoprotein; heat release, HPLC and mass spectro” value on CbiY(Bm) is recorded as “The flavin cofactor could be removed from the holoenzyme by denaturing the protein”.
